# Reference: Sander's compilation of Henry's law constants
# What was measured:
# [1] = Henry solubility constant Hcp at 296 K (mol/(m3 Pa))
# [2] = Henry solubility constant Hcp at 298.15 K (mol/(m3 Pa))
# [3] = Henry solubility constant Hcp at 310 K (mol/(m3 Pa))
# [4] = Henry solubility constant Hcp at 293 K (mol/(m3 Pa))
# [5] = reference: Miller and Stuart (2000)
# [6] = reference: Arp and Schmidt (2004)
# [7] = reference: Nielsen et al. (1994)
# [8] = reference: Power and Stegall (1970)
# [9] = reference: Fendinger and Glotfelty (1988)
# [10] = reference: Fendinger et al. (1989)
# [11] = reference: Warner et al. (1980)
# [12] = reference: McIntosh and Heffron (2000)
# [13] = reference: Bissonette et al. (1990)
# [14] = reference: Nicholson et al. (1984)
# [15] = reference: Ruiz-Bevia and Fernandez-Torres (2010)
# [16] = reference: Xu and Kropscott (2014)
# [17] = reference: Stoelting and Longshore (1972)
# [18] = reference: Smith et al. (1981b)
# [19] = reference: Järnberg and Johanson (1995)
# [20] = reference: Lerman et al. (1983)
# [21] = reference: Sanemasa et al. (1981)
smiles,measurement,setting,value
CC(C)OC(C)C [diisopropyl ether],Henry solubility constant Hcp at 296 K,[1]; [5],0.0043
same,Henry solubility constant Hcp,[2]; [6],0.0039
same,Henry solubility constant Hcp,[2]; reference: Hwang et al. (2010),0.015
same,Henry solubility constant Hcp,[2]; [7],0.0048
[Ne] [neon],Henry solubility constant Hcp at 310 K,[3]; [8],4.3e-06
same,Henry solubility constant Hcp,[2]; reference: Crovetto et al. (1982),4.4e-06
same,Henry solubility constant Hcp,[2]; reference: Krause and Benson (1989),4.5e-06
same,Henry solubility constant Hcp,[2]; reference: Lannung (1930),4.6e-06
same,Henry solubility constant Hcp,[2]; reference: Morrison and Johnstone (1954),4.5e-06
same,Henry solubility constant Hcp,[2]; reference: von Antropoff (1910),6.6e-06
"ClC1C(Cl)C(Cl)C(Cl)C(Cl)C1Cl (configuration not stated) [γ-1,2,3,4,5,6-hexachlorocyclohexane]",Henry solubility constant Hcp at 296 K,[1]; [9],5
same,Henry solubility constant Hcp at 296 K,[1]; [10],4.9
same,Henry solubility constant Hcp,[2]; reference: Kucklick et al. (1991),2.8
same,Henry solubility constant Hcp,[2]; reference: Sahsuvar et al. (2003),4.3
same,Henry solubility constant Hcp,[2]; reference: Xie et al. (2004),6
ClC1=C(Cl)[C@]2(Cl)C3C(Cl)C(Cl)CC3[C@@]1(Cl)C2(Cl)Cl (some centres not stated) [chlordane],Henry solubility constant Hcp at 296 K,[1]; [10],0.18
same,Henry solubility constant Hcp,[2]; [10],0.12
same,Henry solubility constant Hcp,[2]; [11],0.21
"Cc1cccc(C)c1 [1,3-dimethylbenzene]",Henry solubility constant Hcp at 310 K,[3]; [12],0.00066
same,Henry solubility constant Hcp,[2]; [13],0.0014
same,Henry solubility constant Hcp,[2]; reference: Li et al. (2008),0.0014
same,Henry solubility constant Hcp,[2]; reference: Tsibul’skii et al. (1979),0.0018
CCOCC [diethyl ether],Henry solubility constant Hcp at 310 K,[3]; reference: Brody et al. (1971),0.0063
same,Henry solubility constant Hcp at 310 K,[3]; reference: Eger et al. (1963),0.0051
same,Henry solubility constant Hcp at 293 K,[4]; reference: Yu (1992),0.0033
same,Henry solubility constant Hcp,[2]; reference: Bachofen and Farhi (1971),0.013
same,Henry solubility constant Hcp,[2]; [7],0.011
same,Henry solubility constant Hcp,[2]; reference: Ondo and Dohnal (2007),0.01
same,Henry solubility constant Hcp,[2]; reference: Signer et al. (1969),0.0078
BrC(Br)Br [tribromomethane],Henry solubility constant Hcp at 310 K,[3]; reference: Zhang et al. (2002),0.0096
same,Henry solubility constant Hcp,[2]; reference: Khalfaoui and Newsham (1994a),0.0085
same,Henry solubility constant Hcp,[2]; reference: Munz and Roberts (1987),0.018
same,Henry solubility constant Hcp,[2]; [14],0.016
same,Henry solubility constant Hcp,[2]; [15],0.02
same,Henry solubility constant Hcp,[2]; [11],0.019
C[Si](C)(C)O[Si](C)(C)C [hexamethyldisiloxane],Henry solubility constant Hcp at 296 K,[1]; reference: David et al. (2000),7.7e-07
same,Henry solubility constant Hcp,[2]; [16],1.3e-06
CCC(C)(C)OC [2-methoxy-2-methylbutane],Henry solubility constant Hcp at 296 K,[1]; [5],0.0052
same,Henry solubility constant Hcp,[2]; [6],0.0086
same,Henry solubility constant Hcp,[2]; reference: Haimi et al. (2006),0.01
same,Henry solubility constant Hcp,[2]; reference: Hwang et al. (2010),0.053
same,Henry solubility constant Hcp,[2]; reference: Park et al. (1997),0.007
"C=COCC(F)(F)F [(2,2,2-trifluoroethoxy)-ethene]",Henry solubility constant Hcp at 310 K,[3]; reference: Munson et al. (1964),0.00033
same,Henry solubility constant Hcp at 310 K,[3]; [17],0.00032
same,Henry solubility constant Hcp,[2]; [18],0.00055
CCOP(=S)(OCC)Oc1cc(C)nc(C(C)C)n1 [diazinon],Henry solubility constant Hcp at 296 K,[1]; [9],88
same,Henry solubility constant Hcp at 296 K,[1]; [10],84
same,Henry solubility constant Hcp,[2]; reference: Feigenbrugel et al. (2004a),15
FS(F)(F)(F)(F)F [sulfur hexafluoride],Henry solubility constant Hcp at 310 K,[3]; reference: Longo et al. (1970),1.7e-06
same,Henry solubility constant Hcp at 310 K,[3]; [8],1.7e-06
same,Henry solubility constant Hcp,[2]; reference: Ashton et al. (1968),2.4e-06
same,Henry solubility constant Hcp,[2]; reference: Bullister et al. (2002),2.3e-06
same,Henry solubility constant Hcp,[2]; reference: Cosgrove and Walkley (1981),2.5e-06
same,Henry solubility constant Hcp,[2]; reference: Friedman (1954),2.2e-06
same,Henry solubility constant Hcp,[2]; reference: Park et al. (1982),2.4e-06
"Cc1ccc(C)c(C)c1 [1,2,4-trimethylbenzene]",Henry solubility constant Hcp at 310 K,[3]; [19],0.00062
same,Henry solubility constant Hcp at 293 K,[4]; reference: Yurteri et al. (1987),0.0021
same,Henry solubility constant Hcp,[2]; reference: Li et al. (2008),0.0017
"Clc1ccc(C(c2ccc(Cl)cc2)C(Cl)(Cl)Cl)cc1 [1,1,1-trichloro-2,2-bis-(4-chlorophenyl)-ethane]",Henry solubility constant Hcp at 296 K,[1]; [10],0.77
same,Henry solubility constant Hcp,[2]; [10],1.2
C=C(C)C1CC=C(C)CC1 (configuration not stated) [1-methyl-4-(1-methylethenyl)-cyclohexene],Henry solubility constant Hcp at 310 K,[3]; reference: Falk et al. (1990),0.0007
same,Henry solubility constant Hcp,[2]; reference: Copolovici and Niinemets (2007),0.00026
same,Henry solubility constant Hcp,[2]; reference: Fichan et al. (1999),0.0007
same,Henry solubility constant Hcp,[2]; reference: Leng et al. (2013),0.00048
"FC(F)(F)C(Cl)Br (configuration not stated) [1-bromo-1-chloro-2,2,2-trifluoroethane]",Henry solubility constant Hcp at 310 K,[3]; [20],0.00033
same,Henry solubility constant Hcp at 310 K,[3]; reference: Saidman et al. (1966),0.00034
same,Henry solubility constant Hcp at 310 K,[3]; [17],0.00032
same,Henry solubility constant Hcp,[2]; [18],0.00053
CCCCOCC [1-ethoxy-butane],Henry solubility constant Hcp at 296 K,[1]; [5],0.0064
"Cc1ccc(C)cc1 [1,4-dimethylbenzene]",Henry solubility constant Hcp at 310 K,[3]; [12],0.00067
same,Henry solubility constant Hcp,[2]; [13],0.0012
same,Henry solubility constant Hcp,[2]; reference: Bobadilla et al. (2003),0.002
same,Henry solubility constant Hcp,[2]; reference: Li et al. (2008),0.0014
same,Henry solubility constant Hcp,[2]; reference: Lin and Chou (2006),0.0016
same,Henry solubility constant Hcp,[2]; reference: Park et al. (1997),0.00098
same,Henry solubility constant Hcp,[2]; reference: Wasik and Tsang (1970),0.0023
CCOC(C)(C)C [ethyl tert-butyl ether],Henry solubility constant Hcp at 296 K,[1]; [5],0.0042
same,Henry solubility constant Hcp,[2]; [6],0.0061
same,Henry solubility constant Hcp,[2]; reference: Haimi et al. (2006),0.0064
same,Henry solubility constant Hcp,[2]; reference: Hwang et al. (2010),0.12
same,Henry solubility constant Hcp,[2]; reference: Sieg et al. (2009),0.0063
ClC(Br)Br [dibromochloromethane],Henry solubility constant Hcp at 310 K,[3]; reference: Zhang et al. (2002),0.0046
same,Henry solubility constant Hcp,[2]; reference: Ervin et al. (1980),0.0085
same,Henry solubility constant Hcp,[2]; [14],0.0086
same,Henry solubility constant Hcp,[2]; [15],0.011
same,Henry solubility constant Hcp,[2]; [11],0.013
CCc1ccccc1 [ethylbenzene],Henry solubility constant Hcp at 296 K,[1]; [5],0.0016
same,Henry solubility constant Hcp,[2]; reference: Allen et al. (1998),0.0013
same,Henry solubility constant Hcp,[2]; [13],0.0011
same,Henry solubility constant Hcp,[2]; reference: Brown and Wasik (1974),0.0013
same,Henry solubility constant Hcp,[2]; reference: Ervin et al. (1980),0.0014
same,Henry solubility constant Hcp,[2]; reference: Hartkopf and Karger (1973),0.0016
same,Henry solubility constant Hcp,[2]; reference: Heidman et al. (1985),0.0013
same,Henry solubility constant Hcp,[2]; reference: Li et al. (2008),0.0014
same,Henry solubility constant Hcp,[2]; reference: Lodge and Danso (2007),0.0011
same,Henry solubility constant Hcp,[2]; reference: Mackay et al. (1979),0.0012
same,Henry solubility constant Hcp,[2]; reference: Perlinger et al. (1993),0.0013
same,Henry solubility constant Hcp,[2]; reference: Robbins et al. (1993),0.0013
same,Henry solubility constant Hcp,[2]; [21],0.0014
same,Henry solubility constant Hcp,[2]; reference: Sieg et al. (2009),0.0013
same,Henry solubility constant Hcp,[2]; reference: Turner et al. (1996),0.0011
same,Henry solubility constant Hcp,[2]; [11],0.0015
"COC(F)(F)C(Cl)Cl [2,2-dichloro-1,1-difluoro-1-methoxyethane]",Henry solubility constant Hcp at 310 K,[3]; [20],0.0017
same,Henry solubility constant Hcp at 310 K,[3]; [17],0.0018
same,Henry solubility constant Hcp,[2]; [18],0.0029
"FC(F)OC(Cl)C(F)(F)F (configuration not stated) [1-chloro-2,2,2-trifluoroethyl difluoromethyl ether]",Henry solubility constant Hcp at 310 K,[3]; [20],0.00024
same,Henry solubility constant Hcp,[2]; [18],0.00048
"Cc1cc(C)cc(C)c1 [1,3,5-trimethylbenzene]",Henry solubility constant Hcp at 310 K,[3]; [19],0.00048
same,Henry solubility constant Hcp,[2]; [21],0.0011
[C-]#[O+] [carbon monoxide],Henry solubility constant Hcp at 310 K,[3]; [8],8.3e-06
same,Henry solubility constant Hcp,[2]; reference: Bunsen (1855a),9.5e-06
same,Henry solubility constant Hcp,[2]; reference: Meadows and Spedding (1974),7.9e-05
same,Henry solubility constant Hcp,[2]; reference: Rettich et al. (1982),9.7e-06
same,Henry solubility constant Hcp,[2]; reference: Schmidt (1979),7e-06
same,Henry solubility constant Hcp,[2]; reference: Winkler (1901),9.4e-06
CCCCC=O [pentanal],Henry solubility constant Hcp at 296 K,[1]; reference: Liu et al. (2015),0.068
same,Henry solubility constant Hcp,[2]; reference: Buttery et al. (1965),0.058
same,Henry solubility constant Hcp,[2]; reference: Ji and Evans (2007),0.071
CCCCOC(=O)c1ccccc1C(=O)OCCCC [dibutyl phthalate],Henry solubility constant Hcp at 296 K,[1]; reference: Atlas et al. (1983),5.5
C[Si]1(C)O[Si](C)(C)O[Si](C)(C)O[Si](C)(C)O[Si](C)(C)O1 [decamethylcyclopentasiloxane],Henry solubility constant Hcp at 296 K,[1]; reference: David et al. (2000),7.4e-05
same,Henry solubility constant Hcp,[2]; reference: Xu and Kropscott (2012),3e-07
same,Henry solubility constant Hcp,[2]; [16],2.8e-07
